Laboratory results: ChEMBL document CHEMBL3390834, “Development of second generation epigenetic agents” (Medchemcomm, 2012)

Target: Histone deacetylase 2 (Homo sapiens, UniProt Q92769)
Experiment: Inhibition of recombinant human HDAC-2 expressed in baculovirus infected insect Sf9 cells using Fluor de Lys as substrate preincubated for 2 hrs followed by substrate addition measured after 10 mins by fluorescence assay

Sequence of Histone deacetylase 2 (Q92769 whole entry): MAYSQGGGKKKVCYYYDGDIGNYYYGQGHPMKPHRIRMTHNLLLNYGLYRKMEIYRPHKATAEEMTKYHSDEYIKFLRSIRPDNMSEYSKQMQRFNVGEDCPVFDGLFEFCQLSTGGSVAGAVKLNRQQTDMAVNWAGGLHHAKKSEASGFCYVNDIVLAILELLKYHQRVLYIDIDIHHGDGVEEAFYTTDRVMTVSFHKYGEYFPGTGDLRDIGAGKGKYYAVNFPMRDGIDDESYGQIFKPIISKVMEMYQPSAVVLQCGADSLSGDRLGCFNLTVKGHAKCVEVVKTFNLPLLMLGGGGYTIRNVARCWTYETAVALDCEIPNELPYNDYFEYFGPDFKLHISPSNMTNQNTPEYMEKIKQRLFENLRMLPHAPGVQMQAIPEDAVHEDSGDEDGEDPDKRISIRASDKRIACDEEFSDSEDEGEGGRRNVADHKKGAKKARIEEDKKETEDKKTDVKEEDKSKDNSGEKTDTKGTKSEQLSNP

## CCCCc1nc2cc(/C=C/C(=O)NO)ccc2n1CCN(CC)CC [PRACINOSTAT]
  Ki: 16 nM
